Data set [1] has as its system methamphetamine-induced stereotyped behavior. Briefly: Methamphetamine-induced stereotyped behavior in rats (Experiment 6). The data set is classed as in vivo, rats (male Wistar strain, aged 8 weeks). On the procedure: Effects of the compounds on methamphetamine-induced stereotyped behavior in rats (male Wistar strain, aged 8 weeks) were examined according to the method of Ueki et al. (Folia Pharmacologica Japonica, 68, 716, 1972).
The rats were placed in separate plastic cages for 1 hour to be accustomed to the experimental conditions and then the tested compounds were given intraperitoneally followed, after 1 hour, by an intraperitoneal application of methamphetamine (5 mg/kg). The influence of the tested compounds on the agitated behavior of the rats were observed every 30 minutes till 5 hours thereafter.

Data set [2] relates to reserpine-induced hypothermia. Nature of the data set: Reserpine-induced hypothermia in mice (Experiment 7). The note with it: p.o.
Data set [3] deals with methamphetamine-induced stereotyped behavior. Briefly: Potentiation of methamphetamine-induced stereotyped behavior in rats (Experiment 1). The data set is classed as in vivo, rats (male Wistar strain, aged 6 weeks). The note with it: for minimal effective dose: Rattus norvegicus, read-out: minimum effective dose causing statistically significant potentiation of the methamphetamine-induced stereotype; for minimum effective dose causing statistically significant potentiation of the methamphetamine-induced stereotype: i.p., 1 hour before methamphetamine 5 mg/Kg i.p., rats observed every 30 minutes until 5 hours. On the procedure:
The rats were placed in separate plastic cages for 1 hour to be accustomed to the experimental conditions, then the tested compounds were given intraperitoneally followed after 1 hour by an intraperitoneal application of methamphetamine (5 mg/Kg).

In data set [4] the test system is reserpine induced ptoses and hypothermia. Briefly: Competitive effects on reserpine induced ptoses and hypothermia in mice (Experiment 3). Format: in vivo, mice (male ICR-JCL strain weighing 25-35 g). The note with it: 10 mg/Kg, p.c. (so in the source), simultaneously with reserpine 2 mg/Kg i.p.; scored 0.5-6 hours; 10 mice. On the procedure: The tested compound (10 mg/Kg, p.c.) and reserpine (2 mg/Kg, i.p.) were applied simultaneously to the mice and the degree of ptosis was scored according to the method of Ruben et al. (J. Pharmacol. Exptl. Ther., 120, 125, 1957) at 0.5, 1, 2, 3, 4, 5 and 6 hours after dosages, respectively.
Rectal temperature of the mice were also measured together with those of non-reserpinized mice. Inhibitory percent of the degree of ptosis and differences between rectal temperatures of reserpinized and non-reserpinized mice due to the tested compound are shown in the following Table. For each experiment 10 mice were used.

The nature of data set [5]: Pharmacological activity of the isolated isomer salts (general statement). The note with it: statement in words. Format: in vivo.
Data set [6] in a line: in vivo. The note with it: mouse, po, male, 25-35 g. An excerpt:
Acute toxicity (ICR-JCR strain, male, weighing 25-35 g, p.o.)

Counter-ions that a name gives are not always drawn.

With `C1=Cc2cccc(OCC3CNCCO3)c2C1.Cl` (stereo not shown) [2-(7-indenyloxymethyl)morpholine hydrochloride], the “relative potency vs 2-(4-indenyloxymethyl) morpholine hydrochloride” value in data set [1] (ratio of ED50, i.p.) came to 2.5 times. In addition, the “potency compared with 2-(4-indenyloxymethyl) morpholine hydrochloride” value in data set [2] was “more potent than the latter”.
Take `CC1=CCc2c(OCC3CNCCO3)cccc21` (stereo not shown) [Example 11, 2-(3-methyl-7-indenyloxymethyl)morpholine]: in data set [3], the minimal effective dose was 0.3 mg/kg.
Turning to `CN(C)CCC=C1c2ccccc2CCc2ccccc21` [Amitriptyline, reference compound], in data set [3], the minimal effective dose amounted to 10 mg/kg.
The same measure, in the same setting: the value for `CC1=CCc2cccc(OCC3CN(C(C)C)CCO3)c21` (stereo not shown) [Example 12B, 4-isopropyl-2-(3-methyl-4-indenyloxymethyl)morpholine] was 0.3 mg/kg.
In general, ED50 refers to the midpoint of the dose-response relation. Read a high ED50 as a need for a large dose. Take `C1=Cc2c(cccc2OCC2CNCCO2)C1.Cl` (stereo not shown) [2-(4-indenyloxymethyl)-morpholine hydrochloride]: the ED50 in data set [1] (Rattus norvegicus, ip, 1 hour before methamphetamine 5 mg/kg i.p.) was 5 mg/kg.
Regarding `CCOc1ccccc1OCC1CNCCO1` (stereo not shown) [Viloxazine HCl, 2-(2-ethoxyphenoxymethyl) morpholine, reference compound], the “minimum effective dose causing statistically significant potentiation of the methamphetamine-induced stereotype” value in data set [3] was “non effective”. For the same compound, the “Inhibition of ptosis (%)” value in data set [4] was found to be 6.0%.
With `C1=Cc2cccc(OCC3CNCCO3)c2C1` (stereo not drawn) [7-isomer acid addition salt, acid addition salt of 2-(7-indenyloxymethyl) morpholine], the “pharmacological activity compared with the 4-isomer acid addition salt” value in data set [5] is reported as “more preferable pharmacological activity than the 4-isomer acid addition salt”.
For `CCCN1CCOC(COc2cccc3c2CC=C3)C1` (stereo not shown) [Example 6, 2-(7-indenyloxymethyl)-4-propylmorpholine], the minimal effective dose in data set [3] amounted to 1 mg/kg.
For “mixture of 2-(4-indenyloxymethyl)morpholine and 2-(7-indenyloxymethyl) morpholine [Example 10]”, in data set [3], the “minimum effective dose causing statistically significant potentiation of the methamphetamine-induced stereotype” value worked out at 0.3 mg/kg.
The term LD50 denotes the dose at which mortality reaches 50%. With `CC(C)N1CCOC(COc2cccc3c2CC=C3)C1` (stereo not shown) [Example 1, 4-isopropyl-2-(7-indenyloxymethyl)morpholine], the LD50 in data set [6] amounted to 650 mg/kg. Also, the minimal effective dose in data set [3] amounted to 0.3 mg/kg. In data set [4], the “Inhibition of ptosis (%)” value was determined as 14.5%.
`CCCCN1CCOC(COc2cccc3c2CC=C3)C1` (stereo not shown) [Example 2, 4-butyl-2-(7-indenyloxymethyl)-morpholine]: the minimal effective dose in data set [3] came to 3 mg/kg.
For the compound `CCN1CCOC(COc2cccc3c2CC=C3)C1` (stereo not shown) [Example 5, 4-ethyl-2-(7-indenyloxymethyl)morpholine], the LD50 in data set [6] turned out to be 700 mg/kg. Moreover, the minimal effective dose in data set [3] was found to be 0.3 mg/kg.
In the case of `CC1=CCc2c(OCC3CN(C(C)C)CCO3)cccc21` (stereo not shown) [Example 12A, 4-isopropyl-2-(3-methyl-7-indenyloxymethyl)morpholine], the minimal effective dose in data set [3] was found to be 0.03 mg/kg.
Take `CC(C)N1CCOC(COc2cccc3c2CCC3)C1` (stereo not shown) [Compound C, 2-(4-indanyloxymethyl)-4-isopropyl morpholine, reference compound]: the “minimum effective dose causing statistically significant potentiation of the methamphetamine-induced stereotype” value in data set [3] is on record as “non effective”.

These data come from patent publication US4109088A, “2-(Indenyloxymethyl) morpholine derivatives” (priority 1975, dated 1978).
